# Results reported in PMC12305662, “Fragment-Based Development of Small Molecule Inhibitors Targeting Mycobacterium tuberculosis Cholesterol Metabolism” (Journal of Medicinal Chemistry, 2025).
# “And” between values parts separate entries of the source, which are not always exact repeats. Equal values may be shown once. Read-outs that look alike come from different tables or passages of the source.
# Columns and labels:
# CYP125 [1] = biological target: T1, CYP125 (Mycobacterium tuberculosis, UniProt P9WPP1); test: biochemical; assay type: binding; conditions: read-out: KD (μM) CYP125
# T1 sequence (P9WPP1 whole entry): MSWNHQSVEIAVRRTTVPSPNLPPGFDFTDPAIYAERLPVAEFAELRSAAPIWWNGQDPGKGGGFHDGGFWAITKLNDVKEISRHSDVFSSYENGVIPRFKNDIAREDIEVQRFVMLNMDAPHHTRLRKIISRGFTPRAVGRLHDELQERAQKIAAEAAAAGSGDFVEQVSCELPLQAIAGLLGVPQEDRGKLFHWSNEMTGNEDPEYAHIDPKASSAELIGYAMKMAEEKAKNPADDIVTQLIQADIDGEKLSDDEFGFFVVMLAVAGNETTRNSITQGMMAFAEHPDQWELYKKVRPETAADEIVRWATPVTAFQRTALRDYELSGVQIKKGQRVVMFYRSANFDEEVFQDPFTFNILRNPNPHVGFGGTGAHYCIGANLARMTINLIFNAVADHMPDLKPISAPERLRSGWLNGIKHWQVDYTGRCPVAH
# CYP125 [2] = biological target: T1, CYP125; test: LC-MS substrate turnover assay (cholest-4-en-3-one); assay type: biochemical; conditions: for IC50: CYP125 0.5 μM, cholest-4-en-3-one 5 µM, LC-MS, read-out: CYP125A1 IC50; for Ki: estimated by Cheng-Prusoff, cholest-4-en-3-one Km CYP125 = 2.1 µM, read-out: CYP125A1 KI
# Mtb H37Rv [3] = test: Extracellular Mtb growth on cholesterol, MABA MIC99; assay type: cell-based, Mycobacterium tuberculosis; conditions: read-out: MABA-MIC99 (W2) H37Rv, cholesterol
# Mtb CDC1551 [4] = test: as above; assay type: cell-based, Mycobacterium tuberculosis; conditions: read-out: MABA-MIC99 (W2) CDC1551, cholesterol
# Mtb H37Rv [5] = test: Depletion of intracellular ATP (BacTiter Glo), Mtb on cholesterol; assay type: cell-based, Mycobacterium tuberculosis; conditions: cholesterol as sole carbon source
# Mtb CDC1551 [6] = test: as above; assay type: cell-based; conditions: Mycobacterium tuberculosis, cholesterol as sole carbon source
# Mtb (Erdman) = test: Extracellular Mtb (Erdman) growth on cholesterol-supplemented (0.01%) media, MABA; assay type: cell-based, Mycobacterium tuberculosis; conditions: MABA 1 week post-compound treatment, mean ± SD n = 3, read-out: mixed media IC50 (Erdman)
# [7] = tested on: Mtb H37Rv pATB45luc in THP-1 macrophages; test: microbe, parasite or virus in culture; assay type: cell-based; conditions: Mycobacterium tuberculosis, 120 h, 5 days post-compound treatment, mean ± SD n = 2, read-out: intracellular growth Mtb IC50
# CYP1A = biological target: T2, CYP1A (Homo sapiens, UniProt P05177); test: Inhibition of human liver microsomal P450s; assay type: in vitro ADME
# T2 construct: from tissue; host or cells: human liver microsomes
# T2 sequence (P05177 2-516 limits assumed): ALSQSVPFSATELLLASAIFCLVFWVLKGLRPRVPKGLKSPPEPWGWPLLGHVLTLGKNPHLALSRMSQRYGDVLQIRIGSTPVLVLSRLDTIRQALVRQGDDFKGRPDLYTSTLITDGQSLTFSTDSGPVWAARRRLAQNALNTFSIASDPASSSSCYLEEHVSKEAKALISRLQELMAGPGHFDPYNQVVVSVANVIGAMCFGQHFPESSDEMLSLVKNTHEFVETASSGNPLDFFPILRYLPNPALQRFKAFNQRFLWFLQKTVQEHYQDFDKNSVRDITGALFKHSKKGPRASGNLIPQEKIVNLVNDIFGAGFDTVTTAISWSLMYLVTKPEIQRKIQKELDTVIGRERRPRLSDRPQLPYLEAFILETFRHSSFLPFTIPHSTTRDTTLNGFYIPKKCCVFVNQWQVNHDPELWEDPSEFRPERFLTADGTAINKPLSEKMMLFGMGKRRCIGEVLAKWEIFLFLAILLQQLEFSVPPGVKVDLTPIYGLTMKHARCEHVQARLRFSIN
# Description: (§1) Table S8. Inhibition of human liver microsomal P450s. Inhibition constants (IC 50 values, µM) of
# (§2) following substrates: CYP1A-ethoxyresorufin, CYP2C19- mephenytoin, CYP2C9-tolbutamide, CYP2D6-
# (§3) dextromethorphan, CYP3A4-midazolam/testosterone.
# CYP2C19 = biological target: T3, CYP2C19 (Homo sapiens, UniProt P33261); test: Inhibition of human liver microsomal P450s; assay type: in vitro ADME
# T3 construct: from tissue; host or cells: human liver microsomes
# T3 sequence (P33261 whole entry): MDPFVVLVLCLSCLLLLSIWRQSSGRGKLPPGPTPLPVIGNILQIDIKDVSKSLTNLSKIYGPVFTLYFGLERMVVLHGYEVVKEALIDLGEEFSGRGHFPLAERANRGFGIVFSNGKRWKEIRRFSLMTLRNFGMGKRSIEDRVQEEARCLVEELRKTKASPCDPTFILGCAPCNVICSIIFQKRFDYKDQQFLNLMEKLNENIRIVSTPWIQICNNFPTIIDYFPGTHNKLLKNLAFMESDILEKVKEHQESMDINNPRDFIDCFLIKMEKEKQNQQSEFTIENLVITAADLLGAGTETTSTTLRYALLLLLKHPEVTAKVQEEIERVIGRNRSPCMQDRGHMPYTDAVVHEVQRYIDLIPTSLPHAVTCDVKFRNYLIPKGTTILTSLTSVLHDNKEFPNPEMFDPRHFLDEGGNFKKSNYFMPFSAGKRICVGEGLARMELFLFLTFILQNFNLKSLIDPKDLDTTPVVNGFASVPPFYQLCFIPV
# Description: as §1, §2, §3
# CYP2C9 = biological target: T4, CYP2C9 (Homo sapiens, UniProt P11712); test: Inhibition of human liver microsomal P450s; assay type: in vitro ADME
# T4 construct: from tissue; host or cells: human liver microsomes
# T4 sequence (P11712 whole entry): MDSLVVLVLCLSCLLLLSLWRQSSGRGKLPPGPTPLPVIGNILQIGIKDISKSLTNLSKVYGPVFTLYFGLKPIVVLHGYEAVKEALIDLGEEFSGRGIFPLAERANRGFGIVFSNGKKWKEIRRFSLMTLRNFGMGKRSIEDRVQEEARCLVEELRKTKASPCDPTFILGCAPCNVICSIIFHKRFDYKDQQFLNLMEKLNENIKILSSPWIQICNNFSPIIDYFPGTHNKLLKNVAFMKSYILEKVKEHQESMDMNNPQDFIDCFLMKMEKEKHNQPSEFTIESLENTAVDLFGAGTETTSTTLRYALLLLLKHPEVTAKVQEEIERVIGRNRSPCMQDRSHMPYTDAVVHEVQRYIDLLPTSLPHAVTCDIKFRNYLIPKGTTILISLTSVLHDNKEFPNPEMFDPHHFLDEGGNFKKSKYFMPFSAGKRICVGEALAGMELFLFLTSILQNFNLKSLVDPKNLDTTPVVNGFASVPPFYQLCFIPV
# Description: as §1, §2, §3
# CYP2D6 = biological target: T5, CYP2D6 (Homo sapiens, UniProt P10635); test: Inhibition of human liver microsomal P450s; assay type: in vitro ADME
# T5 construct: from tissue; host or cells: human liver microsomes
# T5 sequence (P10635 whole entry): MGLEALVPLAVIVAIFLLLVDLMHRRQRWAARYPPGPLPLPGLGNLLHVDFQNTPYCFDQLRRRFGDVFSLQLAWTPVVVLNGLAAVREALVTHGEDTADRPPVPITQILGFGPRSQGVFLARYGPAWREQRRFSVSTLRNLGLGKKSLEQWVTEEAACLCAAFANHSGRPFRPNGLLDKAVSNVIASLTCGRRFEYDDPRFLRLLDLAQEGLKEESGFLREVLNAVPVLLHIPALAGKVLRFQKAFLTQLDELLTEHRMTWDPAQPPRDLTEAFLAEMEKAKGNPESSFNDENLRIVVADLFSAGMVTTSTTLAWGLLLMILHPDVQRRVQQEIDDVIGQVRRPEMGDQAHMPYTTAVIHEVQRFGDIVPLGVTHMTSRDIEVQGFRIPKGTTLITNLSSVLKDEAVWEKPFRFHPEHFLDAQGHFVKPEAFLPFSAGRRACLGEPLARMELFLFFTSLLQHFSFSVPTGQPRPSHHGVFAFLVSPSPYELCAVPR
# Description: as §1, §2, §3
# CYP3A4 = biological target: T6, CYP3A4 (Homo sapiens, UniProt P08684); test: Inhibition of human liver microsomal P450s; assay type: in vitro ADME
# T6 construct: from tissue; host or cells: human liver microsomes
# T6 sequence (P08684 whole entry): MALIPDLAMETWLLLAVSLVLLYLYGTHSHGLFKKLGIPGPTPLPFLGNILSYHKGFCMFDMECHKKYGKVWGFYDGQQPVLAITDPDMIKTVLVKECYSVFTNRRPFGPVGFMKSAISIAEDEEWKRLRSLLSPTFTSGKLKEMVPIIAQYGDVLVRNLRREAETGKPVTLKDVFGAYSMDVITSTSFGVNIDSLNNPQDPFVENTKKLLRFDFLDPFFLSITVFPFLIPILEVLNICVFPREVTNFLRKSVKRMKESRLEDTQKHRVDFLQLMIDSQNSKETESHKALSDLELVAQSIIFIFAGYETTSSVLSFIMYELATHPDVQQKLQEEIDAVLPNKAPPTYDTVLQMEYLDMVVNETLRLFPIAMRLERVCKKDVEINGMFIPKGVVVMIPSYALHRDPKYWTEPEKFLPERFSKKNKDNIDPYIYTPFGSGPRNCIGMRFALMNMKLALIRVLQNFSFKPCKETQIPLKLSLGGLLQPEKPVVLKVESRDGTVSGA
# Description: as §1, §2, §3
# [8] = tested on: uninfected THP-1 macrophages; test: THP-1 cytotoxicity (ATPLite); conditions: for THP-1 LD50: uninfected THP-1 macrophages, ATP-dependent luminescence, 5 days, top concentration 50 μM
# Mtb CDC1551 [9] = test: Depletion of intracellular ATP, Mtb on glucose; conditions: glucose as sole carbon source
# Description: (§4) (Mtb) H37Rv or CDC1551 strains were grown in Middlebrook 7H9 broth medium (Difco) supplemented with 0.3 g/L casitone, 0.81 g/L NaCl, 0.05% (v/v) tyloxapol, and either 97 mg/L cholesterol, 4 g/L glucose, or 0.2% glycerol. For inhibitor assays, a 10-fold serial dilution of the test compounds was made in the desired medium in duplicate rows of a 96-well plate. Mtb cells were then added to all the wells at the final concentration of 1 × 10^4 CFU, and plates were incubated at 37 °C for up to 15 days. Minimum inhibitory concentrations (MIC99) were determined using the Microplate Alamar Blue Assay (MABA) on day 15.
# (§5) BacTiter Glo reagent (Promega) was added to microtiter plates (1:10 dilution) and luminescence was recorded after 15 min of incubation at room temperature. […] Isoniazid or p-amino salicylic acid were used as positive control compounds for all experiments. Reported MIC and IC50 values are the mean of duplicate treatments.
# Mtb H37Rv [10] = tested on: Mtb H37Rv
# Description: as §4, §5
# CYP125 [11] = biological target: T1, CYP125; assay type: binding; conditions: compound 100 µM, P450 5 µM; high spin population; '-' = no HS maxima present
# CYP142 [12] = biological target: T7, CYP142 (Mycobacterium tuberculosis, UniProt P9WPL5)
# T7 sequence (P9WPL5 whole entry): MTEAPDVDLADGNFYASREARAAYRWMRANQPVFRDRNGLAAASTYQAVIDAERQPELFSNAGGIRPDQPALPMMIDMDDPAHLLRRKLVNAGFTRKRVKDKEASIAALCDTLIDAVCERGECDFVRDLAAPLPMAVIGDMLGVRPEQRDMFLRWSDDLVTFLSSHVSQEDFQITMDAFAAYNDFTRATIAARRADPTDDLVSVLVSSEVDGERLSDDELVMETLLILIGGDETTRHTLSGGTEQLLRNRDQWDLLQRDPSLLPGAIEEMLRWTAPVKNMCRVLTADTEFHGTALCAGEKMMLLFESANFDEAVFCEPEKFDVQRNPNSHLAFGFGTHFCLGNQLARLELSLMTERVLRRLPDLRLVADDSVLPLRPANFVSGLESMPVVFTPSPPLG
# CYP142 [13] = biological target: T7, CYP142; conditions: compound 100 µM, P450 5 µM
# CYP142 [14] = biological target: T7, CYP142; test: biochemical
# H37Rv Mtb = test: Extracellular Mtb growth, MABA MIC90 (drug susceptible strain); assay type: cell-based; conditions: Mycobacterium tuberculosis
# [15] = tested on: MDR-TB strain K26b00MR 113; test: microbe, parasite or virus in culture; assay type: cell-based, Mycobacterium tuberculosis; conditions: for MIC90: Mycobacterium tuberculosis
# [16] = Mycobacterium tuberculosis, H37RV, 336 h, cholesterol as sole carbon source, 2 weeks post-compound treatment
# [17] = Mycobacterium tuberculosis, CDC1551, 336 h, cholesterol as sole carbon source, 2 weeks post-compound treatment
# [18] = Mycobacterium tuberculosis, H37RV, 336 h, 2 weeks post-compound treatment, read-out: ATP-IC50 (W2) H37Rv, cholesterol
# [19] = CDC1551, 168 h, 1 week post-compound treatment, read-out: ATP-IC50 (W1) CDC1551, cholesterol
# [20] = CDC1551, 336 h, 2 weeks post-compound treatment, read-out: ATP-IC50 (W2) CDC1551, cholesterol
# [21] = Mycobacterium tuberculosis, ERDMAN, 168 h
# [22] = CYP3A4 IC50 (midazolam), substrate midazolam (first value of cell)
# [23] = CYP3A4 IC50 (testosterone), substrate testosterone (second value of cell)
# [24] = read-out: ATP IC50 (W1) CDC1551, glucose media, 1 week
# [25] = Mycobacterium tuberculosis, H37RV, 168 h, 1 week post-compound treatment, read-out: ATP-IC50 (W1) H37Rv, cholesterol
# [26] = read-out: ATP IC50 (W2) CDC1551, glucose media, 2 weeks
# [27] = cholesterol as sole carbon source, 2 weeks post-compound treatment
Molecule,Kd (CYP125 [1]) [µM],IC50 (CYP125 [2]) [µM],Ki (CYP125 [2]) [µM],MIC99 (Mtb H37Rv [3]; [16]) [µM],MIC99 (Mtb CDC1551 [4]; [17]) [µM],IC50 (Mtb H37Rv [5]; [18]) [µM],IC50 (Mtb CDC1551 [6]; [19]) [µM],IC50 (Mtb CDC1551 [6]; [20]) [µM],IC50 [7] [µM],IC50 (Mtb CDC1551 [9]; [24]) [µM],IC50 (Mtb H37Rv [5]; [25]) [µM],IC50 (Mtb H37Rv [10]),further results
"O=S(=O)(Nc1ccc(Cc2ccncc2)cc1)c1ccc(OC(F)(F)F)cc1 [5k, N-(4-(Pyridin-4-ylmethyl)phenyl)-4-(trifluoromethoxy)benzenesulfonamide]",0.55 ± 0.12,0.91 ± 0.22,0.27,25,25,2.3,1.2,9.4,13 ± 0.18,19,,,IC50 (Mtb (Erdman); [21]): 22 ± 2 µM; IC50 (CYP1A): 5.95 µM; IC50 (CYP2C19): 3.1 µM; IC50 (CYP2C9): 5.27 µM; IC50 (CYP2D6): 0.18 µM; IC50 (CYP3A4; [22]): 0.26 µM; IC50 (CYP3A4; [23]): 1.25 µM; THP-1 LD50 [8]: 32 µM
"Nc1ccc(C(=O)O)c(O)c1 [p-aminosalicylic acid, reference compound]",,,,,,0.29,0.04,2.3,2.4 ± 0.12,< 0.04,0.04,< 0.04 µM and 0.07 µM,"MIC99 (Mtb H37Rv [3]; Mycobacterium tuberculosis, H37RV, 336 h): 0.19 µM; MIC99 (Mtb CDC1551 [4]; Mycobacterium tuberculosis, CDC1551, 336 h): 0.39 µM; IC50 (Mtb CDC1551 [9]; [26]): 0.07 µM"
N-Phenylpyridin-4-amine [2a],35 ± 5.8,,,,,,,,,,,,CYP125 Δλmax (nm) HS (CYP125 [11]): 0 nm; Kd (CYP142 [12]): 1.1 ± 0.2 µM; CYP142 Δλmax (nm) (CYP142 [13]): 4 nm
"O=S(=O)(Nc1ccc(Cc2ccncc2)cc1)c1ccccc1 [5j, N-(4-(Pyridin-4-ylmethyl)phenyl)benzenesulfonamide]",0.27 ± 0.02,1.5 ± 0.16,0.44,50,25,50,9.4,> 50,,38,38,19 µM,IC50 (Mtb CDC1551 [9]; [26]): 38 µM
"O=C(NCc1ccc2[nH]ccc2c1)c1ccc(Cc2ccncc2)cc1 [5f, N-((1H-Indol-5-yl)methyl)-4-(pyridin-4-ylmethyl)benzamide]",0.59 ± 0.24,3.6 ± 0.41,1.1,> 50,> 50,> 50,> 50,> 50,,> 50,> 50,> 50 µM,MIC99 (Mtb H37Rv [3]; [27]): >50 µM; MIC99 (Mtb CDC1551 [4]; [27]): >50 µM; Kd (CYP142 [14]): 3.2 ± 0.04 µM; IC50 (Mtb CDC1551 [9]; [26]): > 50 µM
"C[C@@H](NC(=O)c1ccc(Cc2ccncc2)cc1)c1ccccc1 [5i, (R)-N-(1-Phenylethyl)-4-(pyridin-4-ylmethyl)benzamide]",7.4 ± 1,33 ± 3.7,9.8,25,25,4.7,2.3,38,,19,9.4,,Kd (CYP142 [14]): 0.64 ± 0.47 µM
"COc1c(N2C[C@@H]3CCCN[C@@H]3C2)c(F)cc2c(=O)c(C(=O)O)cn(C3CC3)c12 [Moxifloxacin, moxifloxacin, reference compound]",,,,,,,,,,,,,IC50 (Mtb (Erdman)): 0.33 ± 0.01 µM
"C[C@@H](NC(=O)c1cccc(Cc2ccncc2)c1)c1ccccc1 [5h, (R)-N-(1-Phenylethyl)-3-(pyridin-4-ylmethyl)benzamide]",40 ± 2,,,25,25,19,2.3,38,,19,9.4,,Kd (CYP142 [14]): 3.3 ± 0.29 µM
"O=C(Nc1ccc(Cc2ccncc2)cc1)[C@H](Cc1c[nH]c2ccccc12)NCc1ccccc1 [5d, (S)-2-(Benzylamino)-3-(1H-indol-3-yl)-N-(4-(pyridin-4-ylmethyl)phenyl)propanamide]",0.072 ± 0.026,0.79 ± 0.09,0.23,25,25,4.7,4.7,38,2.8 ± 0.2,19,4.7,,"IC50 (Mtb H37Rv [5]; 1 week post-compound treatment, read-out: ATP-IC50 (W1) H37Rv, cholesterol): < 5 µM; IC50 (Mtb (Erdman); [21]): 18 ± 3 µM; IC50 (CYP1A): 0.11 µM; IC50 (CYP2C19): < 0.1 µM; IC50 (CYP2C9): 0.14 µM; IC50 (CYP2D6): 0.46 µM; IC50 (CYP3A4; [22]): 0.52 µM; IC50 (CYP3A4; [23]): 1.49 µM; THP-1 cytotoxicity in words ([8]; concentrations up to 50 μM): weakly cytotoxic; THP-1 LD50 [8]: 45 µM"
"NNC(=O)c1ccncc1 [Isoniazid, isoniazid, reference compound]",,,,< 0.1,,< 0.1,,,0.1 ± 0.01,,< 0.1,,"MIC99 (Mtb H37Rv [3]; cholesterol as sole carbon source, 2 weeks post-compound treatment, listed as Inh.): <0.1 µM; MIC90 (H37Rv Mtb; 168 h, MABA 1 week post-compound treatment, glucose-casitone (standard) media, read-out: MIC90 (W1) H37Rv): 0.19 to 0.39 µM; MIC90 (H37Rv Mtb; 336 h, MABA 2 weeks post-compound treatment, read-out: MIC90 (W2) H37Rv): 0.39 µM; MIC90 (W1) MDR-TB ([15]; MABA 1 week post-compound treatment, K26b00MR 113): 12.5 to 25 µM; fold higher value against MDR-TB than H37Rv ([15]; MABA, 1 and 2 weeks): 50–150 fold; MIC90 ([15]; 168 h, read-out: MIC90 (W1) MDR-TB, MABA 1 week post-compound treatment, K26b00MR 113): 13 to 25 µM; MIC90 ([15]; 336 h, read-out: MIC90 (W2) MDR-TB, MABA 2 weeks post-compound treatment, K26b00MR 113): 50 µM"
"COc1ccc(C(C)Nc2ccc(Cc3ccncc3)cc2)cc1 (centres unmarked) [5o, N-(1-(4-Methoxyphenyl)ethyl)-4-(pyridin-4-ylmethyl)aniline]",0.8 ± 0.32,4.2 ± 0.48,1.2,19,,0.59,,,,,0.15,2.3 µM,
